# Source: patent US6407288B1, “Naphthylsalicylanilides as antimicrobial and antiinflammatory agents” (The Research Foundation of State University of New York, priority 2000, dated 2002)
# Assays:
# [1] = system: S. mutans; assay: MIC microdilution, gram positive; assay type: cell-based, Streptococcus mutans; conditions: Table 1, Gram Positive; for MIC: Streptococcus mutans
# Experimental: (§1) The MIC's for the compounds were determined by a modified microdilution tube dilution method described in “Methods for Dilution Antimicrobial Susceptibility Tests for Bacteria that Grow Aerobically” (National Committee for Clinical Laboratory Standards Approved Standards, 1997, NCCLS document M7-A4). In general the modifications were made because of the unique growth requirements for the fastidious oral organisms and for those bacteria that require anaerobic conditions. Reference is also made to “Methods for Antimicrobial Susceptibility of Anaerobic Bacteria” (National Committee for Clinical Laboratory Standards Approved Standards, 1997, NCCLS document M11-A4). Briefly, the methods were as follows. Cultures were grown for 18-24hrs (aerobic bacteria) or 48-72 hrs (anaerobic bacteria) in the appropriate medium. For aerobic bacteria full strength brain heart infusion medium (BHI, Difco) was used. For anaerobic bacteria, half strength BHI (18.5 g/L) was supplemented by adding yeast extract (10 g/L), hemin (0.29 mL of a stock solution containing 0.1 g/200 mL dH2O) and menadione (15 mL of a stock solution containing 0.15 mL in 30 mL 95% EtOH) was used. Initial cultures were diluted to approximately 1×10^8 CFU/mL for use as an inoculum. Each assay received 10 μL of the inoculum. The drugs were prepared from a stock solution contained in dimethyl sulfoxide (DMSO) and diluted into the culture medium. Final concentrations of the drugs ranged from 50 to 0.05 μg/assay. The tests were run in duplicate and were incubated appropriately with regard to oxygen requirements for 24 to 48 hrs as required. Anaerobic incubation was an atmosphere of 5% CO2, 10% H2, with the balance N2. The lowest concentration of an antimicrobial agent at which no visible growth is noted was referred to as the MIC.
# [2] = system: S. aureus; assay: MIC microdilution, gram positive; assay type: cell-based, Staphlococcus aureus; conditions: for MIC: Staphylococcus aureus
# Experimental: (§2) The MIC's for the compounds were determined by a modified microdilution tube dilution method described in “Methods for Dilution Antimicrobial Susceptibility Tests for Bacteria that Grow Aerobically” (National Committee for Clinical Laboratory Standards Approved Standards, 1997, NCCLS document M7-A4). In general the modifications were made because of the unique growth requirements for the fastidious oral organisms and for those bacteria that require anaerobic conditions. Reference is also made to “Methods for Antimicrobial Susceptibility of Anaerobic Bacteria” (National Committee for Clinical Laboratory Standards Approved Standards, 1997, NCCLS document M11-A4).
# (§3) Briefly, the methods were as follows. Cultures were grown for 18-24hrs (aerobic bacteria) or 48-72 hrs (anaerobic bacteria) in the appropriate medium. For aerobic bacteria full strength brain heart infusion medium (BHI, Difco) was used. For anaerobic bacteria, half strength BHI (18.5 g/L) was supplemented by adding yeast extract (10 g/L), hemin (0.29 mL of a stock solution containing 0.1 g/200 mL dH2O) and menadione (15 mL of a stock solution containing 0.15 mL in 30 mL 95% EtOH) was used. Initial cultures were diluted to approximately 1×10^8 CFU/mL for use as an inoculum. Each assay received 10 μL of the inoculum. The drugs were prepared from a stock solution contained in dimethyl sulfoxide (DMSO) and diluted into the culture medium. Final concentrations of the drugs ranged from 50 to 0.05 μg/assay. The tests were run in duplicate and were incubated appropriately with regard to oxygen requirements for 24 to 48 hrs as required. Anaerobic incubation was an atmosphere of 5% CO2, 10% H2, with the balance N2. The lowest concentration of an antimicrobial agent at which no visible growth is noted was referred to as the MIC.
# (§4) This embodiment describes the sensitivity of various staphylococcus strains to the compounds of the present invention. The staphylococcus species R is a strain 00-045-1209 from the Children's Hospital in Buffalo. It was isolated from the peritoneal cavity (fluid culture) of an individual. It was coagulase negative. The sensitivity of this strain was tested agaisnt several known antibiotics.
# [3] = system: P. ging 381; assay: MIC microdilution, gram negative; assay type: cell-based, Porphyromonas gingivalis; conditions: for MIC: Porphyromonas gingivalis, 381
# Experimental: (§5) The MIC's for the compounds were determined by a modified microdilution tube dilution method described in “Methods for Dilution Antimicrobial Susceptibility Tests for Bacteria that Grow Aerobically” (National Committee for Clinical Laboratory Standards Approved Standards, 1997, NCCLS document M7-A4). In general the modifications were made because of the unique growth requirements for the fastidious oral organisms and for those bacteria that require anaerobic conditions. Reference is also made to “Methods for Antimicrobial Susceptibility of Anaerobic Bacteria” (National Committee for Clinical Laboratory Standards Approved Standards, 1997, NCCLS document M11-A4). Briefly, the methods were as follows. Cultures were grown for 18-24hrs (aerobic bacteria) or 48-72 hrs (anaerobic bacteria) in the appropriate medium. For aerobic bacteria full strength brain heart infusion medium (BHI, Difco) was used. For anaerobic bacteria, half strength BHI (18.5 g/L) was supplemented by adding yeast extract (10 g/L), hemin (0.29 mL of a stock solution containing 0.1 g/200 mL dH2O) and menadione (15 mL of a stock solution containing 0.15 mL in 30 mL 95% EtOH) was used. Initial cultures were diluted to approximately 1×10^8 CFU/mL for use as an inoculum. Each assay received 10 μL of the inoculum. The drugs were prepared from a stock solution contained in dimethyl sulfoxide (DMSO) and diluted into the culture medium. Final concentrations of the drugs ranged from 50 to 0.05 μg/assay. The tests were run in duplicate and were incubated appropriately with regard to oxygen requirements for 24 to 48 hrs as required. Anaerobic incubation was an atmosphere of 5% CO2, 10% H2, with the balance N2. The lowest concentration of an antimicrobial agent at which no visible growth is noted was referred to as the MIC. […] The method used was the same as described in Example 1.
# [4] = system: A. viscosus; assay: MIC microdilution, gram positive; assay type: cell-based, Actinomyces viscosus; conditions: Table 2, Gram Positive; for MIC: Actinomyces viscosus
# Experimental: as §1
# [5] = system: P. acnes 6922; assay: MIC microdilution, gram positive; assay type: cell-based, Propionibacterium acnes; conditions: Table 1, Gram Positive; for MIC: Cutibacterium acnes, 6922
# Experimental: as §1
# [6] = system: S. sanguis; assay: MIC microdilution, gram positive; assay type: cell-based, Streptococcus sanguis; conditions: Table 1, Gram Positive
# Experimental: as §1
# [7] = system: S.salivarius; assay: MIC microdilution, gram positive; assay type: cell-based, Streptococcus salivarius; conditions: Table 1, Gram Positive
# Experimental: as §1
# [8] = system: P. acnes 11828; assay: MIC microdilution, gram positive; assay type: cell-based, Propionibacterium acnes; conditions: Table 1, Gram Positive
# Experimental: as §1
# [9] = system: S. species R; assay: Staphylococcus MIC; assay type: cell-based, staphylococcus species R; conditions: second Table 5 (Example 5); strain 00-045-1209
# Experimental: as §2, §3, §4
# [10] = system: Pg 53977; assay: MIC microdilution, gram negative; assay type: cell-based, Porphyromonas gingivalis
# Experimental: as §5
# [11] = system: Fuso. 25586; assay: MIC microdilution, gram negative; assay type: cell-based, Fusobacterium nucleatum
# Experimental: as §5
# [12] = system: Lact 7496; assay: MIC microdilution, gram positive; assay type: cell-based, Lactobacillus rhamnosus (casei); conditions: Table 2, Gram Positive
# Experimental: as §1
# [13] = system: Aa Y4; assay: MIC microdilution, gram negative; assay type: cell-based, Actinobacillus actinomycetemcomitans
# Experimental: as §5
# [14] = system: Str. pn. R; assay: Mean Streptococcus MIC; assay type: cell-based; conditions: Table 5, mean; strain resistant to penicillin and erythromycin
# Experimental: as §2, §3
# (§6) This embodiment illustrates the efficacy of the compounds of the present invention against Streptococcus strains. One of the strains, Str.pn.R was obtained from the Children's Hospital in Buffalo (strain 00-041-0614). […] The sensitivity of this strain was tested against several known antibiotics.
# [15] = system: Str. pn; assay: Mean Streptococcus MIC; assay type: cell-based; conditions: Table 5, mean
# Experimental: as §2, §3, §6
# [16] = system: M. luteus; assay: MIC microdilution, gram positive; assay type: cell-based, Micrococcus luteus; conditions: Table 2, Gram Positive
# Experimental: as §1
# [17] = system: B. fragilis; assay: MIC microdilution, gram negative; assay type: cell-based, Bacteroides fraglis
# Experimental: as §5
# [18] = Table 3 printed a second time, Gram Negative
SMILES,MIC [1] [µg/mL],"MIC ([2]; Table 2, Gram Positive) [µg/mL]","MIC ([3]; Table 3, Gram Negative) [µg/mL]","MIC P. ging 381 [3, 18]",MIC [4] [µg/mL],MIC [5] [µg/mL],MIC S. mutans [1],"MIC S. aureus ([2]; Table 2, Gram Positive)","MIC P. ging 381 ([3]; Table 3, Gram Negative)",MIC A. viscosus [4],MIC P. acnes 6922 [5],also measured
COc1cc(NC(=O)c2cc(C(=O)c3cccc4ccccc34)ccc2O)cc(OC)c1 [NA1-2mOMe],–,–,–,NE (NE indicates that the drug was not effective at a concentration >50 micrograms/ml),–,–,NE (NE indicates that the drug was not effective at a concentration >50 micrograms/ml),NE (NE indicates that the drug was not effective at a concentration >50 micrograms/ml),NE (NE indicates that the drug was not effective at a concentration >50 micrograms/ml),NE (NE indicates that the drug was not effective at a concentration >50 micrograms/ml),NE (NE indicates that the drug was not effective at a concentration >50 micrograms/ml),–
O=C(Nc1cccc(Oc2ccccc2)c1)c1cc(C(=O)c2cccc3ccccc23)ccc1O [NA1mOPh],–,–,–,NE (NE indicates that the drug was not effective at a concentration >50 micrograms/ml),–,–,NE (NE indicates that the drug was not effective at a concentration >50 micrograms/ml),NE (NE indicates that the drug was not effective at a concentration >50 micrograms/ml),NE (NE indicates that the drug was not effective at a concentration >50 micrograms/ml),NE (NE indicates that the drug was not effective at a concentration >50 micrograms/ml),NE (NE indicates that the drug was not effective at a concentration >50 micrograms/ml),–
N#Cc1ccc(NC(=O)c2cc(C(=O)c3cccc4ccccc34)ccc2O)c2ccccc12 [NA1NpC],–,–,–,0.2 micrograms/ml,–,–,NE (NE indicates that the drug was not effective at a concentration >50 micrograms/ml),NE (NE indicates that the drug was not effective at a concentration >50 micrograms/ml),0.2 micrograms/ml,0.8 micrograms/ml,0.4 micrograms/ml,–
"O=C(Nc1ccccc1)c1cc(C(=O)c2cccc3ccccc23)ccc1O [NA1, 2-Hydroxy-5-(naphthalene-1-carbonyl)-N-phenyl-benzamide]",50,50,1.6,1.6 micrograms/ml,3.1,25,–,–,–,–,–,"MIC ([6]; Streptococcus): > 50 µg/mL; MIC ([7]; Streptococcus salivarius): > 50 µg/mL; MIC ([8]; Cutibacterium acnes, 11828): > 50 µg/mL"
O=C(c1ccccc1)c1ccc(NC(=O)c2cc(C(=O)c3cccc4ccccc34)ccc2O)cc1 [NA1pBz],–,–,–,NE (NE indicates that the drug was not effective at a concentration >50 micrograms/ml),–,–,NE (NE indicates that the drug was not effective at a concentration >50 micrograms/ml),NE (NE indicates that the drug was not effective at a concentration >50 micrograms/ml),NE (NE indicates that the drug was not effective at a concentration >50 micrograms/ml),NE (NE indicates that the drug was not effective at a concentration >50 micrograms/ml),NE (NE indicates that the drug was not effective at a concentration >50 micrograms/ml),–
O=C(Nc1cccc(C(F)(F)F)c1)c1cc(C(=O)c2c(O)ccc3ccccc23)ccc1O [NA1OHmF],6.3,> 50,0.8,0.8 micrograms/ml,0.8,3.1,–,–,–,–,–,–

# Further lines, with some results ahead:
MIC [1] [µg/mL],"MIC ([2]; Table 2, Gram Positive) [µg/mL]","MIC ([3]; Table 3, Gram Negative) [µg/mL]","MIC P. ging 381 [3, 18]",MIC [4] [µg/mL],MIC [5] [µg/mL],SMILES,MIC S. mutans [1],"MIC S. aureus ([2]; Table 2, Gram Positive)","MIC P. ging 381 ([3]; Table 3, Gram Negative)",MIC A. viscosus [4],MIC P. acnes 6922 [5],also measured
1.6,> 50,0.2,0.2 micrograms/ml,0.8,0.4,O=C(Nc1cc(C(F)(F)F)cc(C(F)(F)F)c1)c1cc(C(=O)c2cccc3ccccc23)ccc1O [NAmF2],–,–,–,–,–,–
> 50,> 50,3.1,3.1 micrograms/ml,6.3,> 50,O=C(Nc1cccc(COc2ccccc2)c1)c1cc(C(=O)c2cccc3ccccc23)ccc1O [NA1_3BnOP],–,–,–,–,–,–
–,–,–,0.4 micrograms/ml,–,–,N#Cc1ccc(NC(=O)c2cc(C(=O)c3ccc4ccccc4c3)ccc2O)cc1 [NA2pC],1.6 micrograms/ml,6.3 micrograms/ml,0.4 micrograms/ml,1.6 micrograms/ml,6.3 micrograms/ml,"MIC S. sanguis [6]: 6.3 micrograms/ml; MIC S. aureus ([2]; second Table 5 (Example 5)): 6.3 micrograms/ml; MIC S.salivarius [7]: 50 micrograms/ml; MIC S. species R [9]: 12.5 micrograms/ml; MIC Pg 53977 ([10]; Table 3, Gram Negative): 0.4 micrograms/ml; MIC Pg 53977 [10, 18]: 0.4 micrograms/ml; MIC Fuso. 25586 ([11]; Table 3, Gram Negative): 12.5 micrograms/ml; MIC Fuso. 25586 [11, 18]: 12.5 micrograms/ml; MIC Lact 7496 [12]: 6.3 micrograms/ml; MIC Aa Y4 ([13]; Table 3, Gram Negative): 6.3 micrograms/ml; MIC Aa Y4 [13, 18]: 6.3 micrograms/ml; Mean Streptococcus MIC values Str. pn. R [14]: 3.12 micrograms/ml; Mean Streptococcus MIC values Str. pn [15]: 0.58 micrograms/ml; MIC M. luteus [16]: 3.1 micrograms/ml; MIC B. fragilis ([17]; Table 3, Gram Negative): 3.1 micrograms/ml; MIC B. fragilis [17, 18]: 3.1 micrograms/ml; MIC P. acnes 11828 [8]: 6.3 micrograms/ml"
